Results published in patent US5171851A, “Imidazole substituted benzoxazine or benzothiazine derivatives” (Dong-A Pharm. Co., Ltd., priority 1990, dated 1992).
Where “and” joins values, the source holds several entries; their conditions need not be identical. Equal values may be shown once. Read-outs that look alike come from different tables or passages of the source. Values belong to the molecule of their own block, whether it stands above or below them.

Key:
[1] = biological target: T1, cyclic AMP phosphodiesterase (Canis lupus familiaris, UniProt A0A8I3NYE0); assay: effect on cyclic AMP phosphodiesterase isolated from dog's heart; assay type: biochemical; conditions: substrate 1.0 uM; for Inhibitory effect on PDE activity / inhibition at 10 µM / inhibition at 100 µM: falls with concentration; for Inhibitory effect on PDE activity: unit assumed; for IC50: pH 8.0, read-out: IC 50 (50% inhibition of substrate hydrolysis); for inhibition at 10 µM / inhibition at 100 µM: read-out: Inhibitory effect on PDE activity
T1 construct: Two to four grams of left ventricular muscle was obtained; from tissue; host or cells: dog left ventricular muscle, detergent-extracted particulate fraction, DEAE-cellulose pool
T1 sequence (A0A8I3NYE0 1-1135): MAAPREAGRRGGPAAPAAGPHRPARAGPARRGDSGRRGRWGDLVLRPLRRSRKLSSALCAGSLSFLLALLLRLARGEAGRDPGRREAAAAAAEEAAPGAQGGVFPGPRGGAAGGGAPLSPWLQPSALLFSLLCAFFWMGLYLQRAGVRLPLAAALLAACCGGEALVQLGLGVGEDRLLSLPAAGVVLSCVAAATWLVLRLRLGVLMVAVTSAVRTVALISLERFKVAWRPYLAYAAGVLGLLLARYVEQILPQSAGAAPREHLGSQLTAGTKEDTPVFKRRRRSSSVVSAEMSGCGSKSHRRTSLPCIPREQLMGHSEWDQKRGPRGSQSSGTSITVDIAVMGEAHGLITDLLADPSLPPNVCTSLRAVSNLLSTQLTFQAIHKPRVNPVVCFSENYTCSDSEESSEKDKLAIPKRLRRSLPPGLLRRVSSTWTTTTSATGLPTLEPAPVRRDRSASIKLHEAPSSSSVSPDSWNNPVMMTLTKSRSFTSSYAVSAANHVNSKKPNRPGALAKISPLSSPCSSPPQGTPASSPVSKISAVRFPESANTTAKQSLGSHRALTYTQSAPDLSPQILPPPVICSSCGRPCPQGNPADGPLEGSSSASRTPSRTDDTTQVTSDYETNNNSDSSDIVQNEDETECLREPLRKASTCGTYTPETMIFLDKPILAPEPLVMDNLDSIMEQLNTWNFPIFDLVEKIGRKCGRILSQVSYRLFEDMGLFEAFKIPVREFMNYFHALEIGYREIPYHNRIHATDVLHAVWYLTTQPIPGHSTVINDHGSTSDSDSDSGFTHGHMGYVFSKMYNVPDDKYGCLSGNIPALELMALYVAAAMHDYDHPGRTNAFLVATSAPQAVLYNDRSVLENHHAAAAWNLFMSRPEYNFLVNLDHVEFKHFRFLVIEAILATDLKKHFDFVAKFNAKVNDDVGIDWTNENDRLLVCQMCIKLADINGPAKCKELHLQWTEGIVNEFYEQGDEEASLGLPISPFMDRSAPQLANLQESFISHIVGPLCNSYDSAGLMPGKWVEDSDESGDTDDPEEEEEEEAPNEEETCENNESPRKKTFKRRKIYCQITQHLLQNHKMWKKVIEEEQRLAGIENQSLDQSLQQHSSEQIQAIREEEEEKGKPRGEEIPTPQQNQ

[2] = tested on: blood-perfused sino-atrial preparation; assay: sinus rate on blood-perfused sino-atrial preparation; parameters: species or system dog; conditions: for activation at 0.001 mg: dose 1.0 ug; for activation at 0.003 mg: dose 3.0 ug; for activation at 0.01 mg: dose 10.0 ug; for activation at 0.03 mg: dose 30.0 ug
Description: Determination of sinus rate on blood-perfused sino-atrial preparation: Mongrel gods of either sex weighing 7-12 kg were anesthetized with sodium pentoba rbital (30 mg/kg i.v.). Heparin ob 1000 unit/kg was administered to each animal intravenously and the animals were exsanguinated. Heart was removed and put in Krebs-Henseleit solution. Catheter was inserted into blood vessel between right coronary artery and SA nodes. Right atrium and catheter were together removed. Blood supplied from carotid artery of donor dog of either sex weighing 15-25 kg, was supplied to blood vessel cather from right coronary artery and SA node under constant blood pressure of 100 mmHG by use of Peristaltic pump. The resting tension of right atrial muscle was made to 2g. The sinus rate triggered by spontaneous contraction of atrial muscle was determined on Narco physiograph Narcotrace 4). Detailed method was reported by S. Chiba, et al. in Japanese Pharmacology 25, 433-439(1975). Doses of test compounds were injected into flowing blood in gum tube connected to the near part of the catheter inserted into right coronary artery. The effects on sinus rate were shown as percent compared with the sinus ratio prior to the injection of the test compounds.

[3] = tested on: blood perfused papillary muscle preparation; assay: contractile power on blood perfused papillary muscle preparation; parameters: species or system dog; conditions: for activation at 0.001 mg: dose 1.0 ug; for activation at 0.003 mg: dose 3.0 ug; for activation at 0.01 mg: dose 10.0 ug; for activation at 0.03 mg: dose 30.0 ug; for ED 30 (developed tension of papillary muscle): least-square method
Description: Determination of contractile power on blood perfused papillary muscle preparation:
Dogs of either sex weighing 7-12 kg were anesthetized with sodium pentobarbital (30 mg/kg, i.v.). Heparin of 1000 unit/kg was administered to each animal intravenously. The animals were exsanguinated and heart was removed. The preparation was perfused through the cannulated anterior septal artery (ASA) with arterial blood from a donor dog at constant pressure of about […]. Donor dogs were anesthetized with sodium pentobarbital (30 mg/kg, i.v.). Heparin of 1000 units/kg was administered intravenously. The papillary muscle was stimulated with rectangular pulses of 5- ms duration and about 1.5 times the threshold voltage at a rate of 120 stimuli/min through bipolar electrodes. Resting tension was made to 2 g. The developed tension of papillary muscle was determined by Isometric tresducer. Detailed method was reporated by Matsumoto in Am J. Physiol. 218, 1459-1463 (1970). Test compound at the doses of 10-30 ul was injected in flowing blood in the gum tube connected to catheter. The inotropic effect of the test compounds was shown by change percent of developed tension compared with that prior to the administration of the test compounds.

anesthetized cats = assay: cardiotonic effect on anesthetized cats; assay type: in vivo, cat; conditions: Felis catus; for change in vivo at 0.01 mg/kg: 0.01 mg/Kg iv; for change in vivo at 0.1 mg/kg: 0.1 mg/Kg iv; for change in vivo at 0.31 mg/kg: 0.31 mg/Kg iv
Description: Determination of cardiotonic effect on anesthetized cats: Male cats weighing about 3 kg were anesthetized with sodium pentobarbital (30 mg/kg, i.p.). The same anesthetic was infused intravenously at the does of 4 mg/kg/hr in order to maintain the anesthetic state and mechanically ventilated through a cuffed endotracheal tube, chest was opened by a midline incision and a catheter for measuring left ventricular pressure was inserted through apex into left ventricle and the left ventricular pressure was measured. LVdP/dt was determined by use of diffentiator from the left ventricular pressure. Systemic blood pressure was measured by the left femoral artery by a pressure transducer and heart rate was measured by a cardiotachometer triggered by blood pressure pulses. Test compound was injected into the femoral vein by use of cannule. After completion of the surgical procedures, the cats were allowed to recover about 30 minutes before drug administration. These compounds were dissolved in 0.9% physiological saline and diluted with saline. Solvent such as DMSO or DMF was also used, if necessary. Test compound of 0.1 ml/kg was used. Detailed method was reporated in J. Med. Chem. 30. 1279-87(1987).

[4] = Canis lupus familiaris, read-out: change of sinus rate (%)
[5] = Canis lupus familiaris, read-out: change of contractivity (%)

inhibition at 10 µM ([1]; 10 uM test compound): 51.7% | inhibition at 100 µM ([1]; 100 uM test compound): 35.8% | IC50 [1]: 12.8 µM
Molecule: Cc1nccn1-c1ccc2c(c1)COC(=O)N2 [6-(2-methylimidazol-1-yl)-(4H)-3,1-benzoxazine-2-one]
activation at 0.001 mg [2, 4]: 0% | activation at 0.003 mg [2, 4]: 0% | activation at 0.01 mg [2, 4]: 0.86% | activation at 0.03 mg [2, 4]: 3.42% | activation at 0.001 mg [3, 5]: 0% | activation at 0.003 mg [3, 5]: 2.44% | activation at 0.01 mg [3, 5]: 8.57% | activation at 0.03 mg [3, 5]: 13.5% | ED 30 (developed tension of papillary muscle) [3]: > 1000 µg

inhibition at 10 µM ([1]; 10 uM test compound): 61.6% | inhibition at 100 µM ([1]; 100 uM test compound): 30.1%
Molecule: O=C1Nc2ccc(-n3cnc4ccccc43)cc2CO1 [6-(benzimidazol-1-yl)-(4H)-3,1-benzoxazin-2-one]
activation at 0.001 mg [2, 4]: 0% | activation at 0.003 mg [2, 4]: 0% | activation at 0.01 mg [2, 4]: 0.3% | activation at 0.03 mg [2, 4]: 0.75% | activation at 0.001 mg [3, 5]: 0% | activation at 0.003 mg [3, 5]: 1.13% | activation at 0.01 mg [3, 5]: 2.63% | activation at 0.03 mg [3, 5]: 5.24% | ED 30 (developed tension of papillary muscle) [3]: > 1000 µg

IC50 [1]: 2.4 µM and 4.3 µM and 4.05 µM
Molecule: Cc1cn(-c2cc(C)c3c(c2)COC(=O)N3)cn1 [8-methyl-6-(4-methylimidazol-1-yl)-(4H)-3,1-benzoxazin-2-one]
change in vivo at 0.01 mg/kg (anesthetized cats; read-out: HR (%)): 2% | change in vivo at 0.01 mg/kg (anesthetized cats; read-out: LV dp/dt (%)): 20% | change in vivo at 0.01 mg/kg (anesthetized cats; read-out: LVP (%)): 0.1% | change in vivo at 0.01 mg/kg (anesthetized cats; read-out: SBP (%)): -1.7% | change in vivo at 0.01 mg/kg (anesthetized cats; read-out: dBP): -8.5% | change in vivo at 0.01 mg/kg (anesthetized cats; read-out: mBP (%)): -5.5% | change in vivo at 0.1 mg/kg (anesthetized cats; read-out: HR (%)): 7.5% | change in vivo at 0.1 mg/kg (anesthetized cats; read-out: LV dp/dt (%)): 50% | change in vivo at 0.1 mg/kg (anesthetized cats; read-out: LVP (%)): 4.4% | change in vivo at 0.1 mg/kg (anesthetized cats; read-out: SBP (%)): -6.6% | change in vivo at 0.1 mg/kg (anesthetized cats; read-out: dBP): -20% | change in vivo at 0.1 mg/kg (anesthetized cats; read-out: mBP (%)): -13.9% | change in vivo at 0.31 mg/kg (anesthetized cats; read-out: HR (%)): 4.4% | change in vivo at 0.31 mg/kg (anesthetized cats; read-out: LV dp/dt (%)): 40% | change in vivo at 0.31 mg/kg (anesthetized cats; read-out: LVP (%)): 1.2% | change in vivo at 0.31 mg/kg (anesthetized cats; read-out: SBP (%)): -3.4% | change in vivo at 0.31 mg/kg (anesthetized cats; read-out: dBP): -14.3% | change in vivo at 0.31 mg/kg (anesthetized cats; read-out: mBP (%)): -9.3% | activation at 0.0001 mg ([2]; Canis lupus familiaris, dose 0.1 ug, read-out: change of sinus rate (%)): 0.8% | activation at 0.0003 mg ([2]; Canis lupus familiaris, dose 0.3 ug, read-out: change of sinus rate (%)): 1.7% | activation at 0.001 mg [2, 4]: 6.6% | activation at 0.003 mg [2, 4]: 5.8% | change of sinus rate (%) ([2]; at the ED 30 dose): +5.0% | activation at 0.0001 mg ([3]; Canis lupus familiaris, dose 0.1 ug, read-out: change of contractivity (%)): 4.3% | activation at 0.0003 mg ([3]; Canis lupus familiaris, dose 0.3 ug, read-out: change of contractivity (%)): 8.7% | activation at 0.001 mg [3, 5]: 23.9% | activation at 0.003 mg [3, 5]: 79.2% | ED 30 (developed tension of papillary muscle) [3]: 1.2 µg

Further lines, the molecule ahead of its results:

Molecule: 6-(2-methylimidazol-1-yl)-(4H)-3,1-benzimidazol-2-one
Inhibitory effect on PDE activity ([1]; 0.1 uM test compound): 95.9% | Inhibitory effect on PDE activity ([1]; 1 uM test compound): 86.8% | Inhibitory effect on PDE activity ([1]; 10 uM test compound): 62.6% | Inhibitory effect on PDE activity ([1]; 100 uM test compound): 37.9% | IC50 [1]: 32.4 µM

Molecule: O=C1Nc2ccc(-n3ccnc3)cc2CO1 [6-(imidazol-1-yl)-(4H)-3,1-benzoxazin-2-one]
inhibition at 10 µM ([1]; 10 uM test compound): 60% | inhibition at 100 µM ([1]; 100 uM test compound): 41.8% | IC50 [1]: 31 µM and 12.7 µM | activation at 0.001 mg [2, 4]: 0% | activation at 0.003 mg [2, 4]: 0.84% | activation at 0.01 mg [2, 4]: 2.52% | activation at 0.03 mg [2, 4]: 6.67% | activation at 0.001 mg [3, 5]: 3.33% | activation at 0.003 mg [3, 5]: 6.95% | activation at 0.01 mg [3, 5]: 9.76% | activation at 0.03 mg [3, 5]: 16.2% | ED 30 (developed tension of papillary muscle) [3]: > 1000 µg
